In the assay the target is T1, SYK (Homo sapiens, UniProt P43405).
T1 construct: 2.5 nM SYK, 400 nM Biotin-Aha-Aha-KEDPDYEWPSAKK and 10 μM ATP
Kind of assay: SYK Flash Plate Assay (enzyme assay). The class given is biochemical. How it is done: The kinase assay is performed either as 384-well Flashplate assay (for e.g. Topcount measurement) or as 384-well Image-Flashplate assay (for LEADseeker measurement).
2.5 nM SYK, 400 nM Biotin-Aha-Aha-KEDPDYEWPSAKK and 10 μM ATP (spiked with 0.3 μCi 33P-ATP/well) are incubated in a total volume of 50 μl (60 mM Hepes, 10 mM MgCl2, 1.2 mM Dithiothreitol, 0.02% Brij35, 0.1% BSA, pH 7.5) with or without test compound for 1 hours at 30° C. The reaction is stopped with 25 μl 200 mM EDTA. After 30 Min at 30° C. the liquid is removed and each well washed thrice with 100 μl 0.9% sodium chloride solution. Non-specific reaction is determined in presence of 0.1 μM Staurosporine. Radioactivity is measured with Topcount (when using Flashplates) or with LEADseeker (when using Image-Flashplates) respectively. Results (e.g. IC50-values) are calculated with program tools provided by the IT-department (e.g. Symyx Assay Explorer, Genedata Screener).

A value given as a limit tells only on which side of the number the result lay.

The term IC50 denotes the point on the concentration scale where inhibition reaches its midpoint. Lower therefore signals greater potency in that assay.

As to `COc1cc(OCCN)ccc1-c1cc2nccc(-c3ccc4[nH]cnc4c3)c2o1` [Compound A18, 2-{4-[7-(1H-benzoimidazol-5-yl)-furo[3,2-b]pyridin-2-yl]-3-methoxy-phenoxy}-ethylamine], the IC50 is 300 to 3000 nM. For `COc1cc(-c2cc3nccc(-c4cccc(C(=O)NC[C@@H](O)CO)c4)c3o2)cc(OC)c1OC` [Compound A17, N—((R)-2,3-dihydroxy-propyl)-3-[2-(3,4,5-trimethoxy-phenyl)-furo[3,2-b]pyridin-7-yl]-benzamide], the IC50 lay within 3000 to 50000 nM. With `COc1cc(-c2cc3nccc(-c4cccc(C(=O)NC[C@H](O)[C@@H](O)[C@H](O)[C@H](O)CO)c4)c3o2)cc(OC)c1OC` [Compound A28, N-((2S,3R,4R,5R)-2,3,4,5,6-pentahydroxy-hexyl)-3-[2-(3,4,5-trimethoxyphenyl)-furo[3,2-b]pyridin-7-yl]-benzamide], the IC50 is 3000 to 50000 nM. With `COc1ccc(C(N)=O)cc1-c1cc2nccc(-c3cccc(C(=O)N[C@@H]4CCCC[C@@H]4N)c3)c2o1` [Compound A46, 3-{7-[3-((1R,2S)-2-amino-cyclohexylcarbamoyl)-phenyl]-furo[3,2-b]pyridin-2-yl}-4-methoxy-benzamide] the figure was 300 to 3000 nM. The value for `COc1ccc(Cl)c(-c2cc3nccc(-c4cccc(C(=O)N[C@@H]5CCCC[C@@H]5N)c4)c3o2)c1` [Compound A25, N-((1R,2S)-2-amino-cyclohexyl)-3-[2-(2-chloro-5-methoxy-phenyl)-furo[3,2-b]pyridin-7-yl]-benzamide] was 300 to 3000 nM.

`COc1cc(-c2cc3nccc(-c4cccc(C(=O)N[C@@H]5CCCC[C@@H]5NS(C)(=O)=O)c4)c3o2)cc(OC)c1OC` [Compound A33, N-((1R,2S)-2-methanesulfonylamino-cyclohexyl)-3-[2-(3,4,5-trimethoxyphenyl)-furo[3,2-b]pyridin-7-yl]-benzamide] had an IC50 of 3000 to 50000 nM. `COc1ccc(C(N)=O)cc1-c1cc2nccc(-c3ccnc(NC[C@H]4CCCNC4)c3)c2o1` [Compound A90, 4-methoxy-3-(7-{2-[((S)-1-piperidin-3-ylmethyl)-amino]-pyridin-4-yl}-furo[3,2-b]pyridin-2-yl)-benzamide] showed an IC50 of less than 100 nM. The compound `COc1ccc(C(N)=O)cc1-c1cc2nccc(-c3cc[nH]c3)c2o1` [Compound A94, 4-methoxy-3-[7-(1H-pyrrol-3-yl)-furo[3,2-b]pyridin-2-yl]-benzamide] had an IC50 of 100 to 300 nM. With `COc1ccc([C@@H](C)N)cc1-c1ccnc2cc(-c3cc(OC)c(OC)c(OC)c3)oc12` [Compound A100, (R)-1-{4-methoxy-3-[2-(3,4,5-trimethoxy-phenyl)-furo[3,2-b]pyridin-7-yl]-phenyl}-ethylamine] the figure was 300 to 3000 nM; with `COc1cc(-c2cc3nccc(-c4cc(C(=O)N[C@@H]5CCCC[C@@H]5N)ccc4F)c3o2)cc(OC)c1OC` [Compound A48, N-((1R,2S)-2-mino-cyclohexyl)-4-fluoro-3-[2-(3,4,5-trimethoxy-phenyl)furo[3,2-b]pyridin-7-yl]-benzamide], 300 to 3000 nM; with `COc1cc(-c2cc3nccc(-c4ccnc(NC[C@@H]5CCCNC5)c4)c3o2)cc(OC)c1OC` [Compound A7, (R)-1-piperidin-3-ylmethyl-{4-[2-(3,4,5-trimethoxy-phenyl)-furo[3,2-b]pyridin-7-yl]-pyridin-2-yl}-amine], 300 to 3000 nM. As to `COc1ccc(C(N)=O)cc1-c1cc2nccc(-c3ccnc(N[C@H]4CCCC[C@H]4N)c3)c2o1` [Compound A96, 3-{7-[2-((1S,2R)-2-amino-cyclohexylamino)-pyridin-4-yl]-furo[3,2-b]pyridin-2-yl}-4-methoxy-benzamide], the IC50 is less than 100 nM.

`COc1cc(-c2cc3nccc(-c4cccc(C(=O)N[C@H]5CCCC[C@H]5O)c4)c3o2)cc(OC)c1OC` [Compound A11, N-((1S,2R)-2-hydroxy-cyclohexyl)-3-[2-(3,4,5-trimethoxy-phenyl)-furo[3,2-b]pyridin-7-yl]-benzamide]: the IC50 lay in the range of 300 to 3000 nM. In turn, `COc1ccc(S(N)(=O)=O)cc1-c1cc2nccc(-c3cc[nH]n3)c2o1` [Compound A82, 4-methoxy-3-[7-(1H-pyrazol-3-yl)-furo[3,2-b]pyridin-2-yl]-benzenesulfonamide] showed a concentration for half-maximal inhibition (IC50) of less than 100 nM. The value for `COc1ccc(C(N)=O)cc1-c1cc2nccc(-c3cc(C(N)=O)ccc3OC)c2o1` [Compound A31, 3-[2-(5-carbamoyl-2-methoxy-phenyl)furo[3,2-b]pyridin-7-yl]-4-methoxybenzamide] was 300 to 3000 nM; that for `COc1cccc(OC)c1-c1ccnc2cc(-c3cc(C(N)=O)ccc3N)oc12` [Compound A107, 4-amino-3-[7-(2,6-dimethoxy-phenyl)-furo[3,2-b]pyridin-2-yl]-benzamide] was 100 to 300 nM. In the case of `COc1cc(-c2cc3nccc(-c4cc(OCCN)ccc4F)c3o2)cc(OC)c1OC` [Compound A44, 2-{4-fluoro-3-[2-(3,4,5-trimethoxy-phenyl)-furo[3,2-b]pyridin-7-yl]-phenoxy}-ethylamine], the IC50 is 300 to 3000 nM. The value for `COc1cc(-c2cc3nccc(-c4ccc5ncn(CCN)c5c4)c3o2)cc(OC)c1OC` [Compound A8, 2-{6-[2-(3,4,5-trimethoxy-phenyl)-furo[3,2-b]pyridin-7-yl]-benzoimidazol-1-yl}-ethylamine] was 300 to 3000 nM; that for `COc1cc(-c2cc3nccc(-c4cc[nH]c4)c3o2)cc(OC)c1OC` [Compound A83, 7-(1H-pyrrol-3-yl)-2-(3,4,5-trimethoxy-phenyl)-furo[3,2-b]pyridine] was less than 100 nM. Compound `COc1ccc(C(N)=O)cc1-c1cc2nccc(-c3cc(S(N)(=O)=O)ccc3OC)c2o1` [Compound A77, 4-methoxy-3-[7-(2-methoxy-5-sulfamoyl-phenyl)-furo[3,2-b]pyridin-2-yl]-benzamide] displayed an IC50 of 300 to 3000 nM. In the case of `COc1cc(-c2cc3nccc(-c4ccc5c(c4)ncn5CCN)c3o2)cc(OC)c1OC` [Compound A3, 2-{5-[2-(3,4,5-Trimethoxy-phenyl)-furo[3,2-b]pyridin-7-yl]-benzoimidazol-1-yl}-ethylamine], the IC50 was 300 to 3000 nM. The value for `COc1cc(-c2cc3nccc(-c4cnc[nH]4)c3o2)cc(OC)c1OC` [Compound A91, 7-(3H-imidazol-4-yl)-2-(3,4,5-trimethoxy-phenyl)-furo[3,2-b]pyridine] was 100 to 300 nM; that for `COc1cc(-c2cc3nccc(-c4nnc(C)o4)c3o2)cc(OC)c1OC` [Compound A99, 7-(5-methyl-[1,3,4]oxadiazol-2-yl)-2-(3,4,5-trimethoxy-phenyl)-furo[3,2-b]pyridine] was 300 to 3000 nM. Compound `CCc1ccc(OC)cc1-c1cc2nccc(-c3ccc4[nH]cnc4c3)c2o1` [Compound A36, 7-(1H-benzoimidazol-5-yl)-2-(2-ethyl-5-methoxy-phenyl)-furo[3,2-b]pyridine] had an IC50 of 3000 to 50000 nM. The value for `COc1ccc(-c2ncon2)cc1-c1cc2nccc(-c3cc[nH]n3)c2o1` [Compound A92, 2-(2-methoxy-5-[1,2,4]oxadiazol-3-yl-phenyl)-7-(1H-pyrazol-3-yl)-furo[3,2-b]pyridine] was less than 100 nM; that for `CCn1cc(-c2ccnc3cc(-c4cc(C(N)=O)ccc4OC)oc23)cn1` [Compound A63, 3-[7-(1-ethyl-1H-pyrazol-4-yl)-furo[3,2-b]pyridin-2-yl]-4-methoxy-benzamide] was 300 to 3000 nM.

(Values after patent US20150038527A1, “FUROPYRIDINE DERIVATIVES” (Merck Patent GmbH, priority 2012, published 2015).)
